Data on ten compounds can be found in ChEMBL document CHEMBL1201862, “PubChem BioAssay data set” (2004).

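All cell lines were grown in 96-well plates and treated with compound for 48 hours. The concentration for 50% growth inhibition is given as GI50.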 Activity calls are given as the source filed them. Rule as the data show it: active = GI50 up to about 1.1 µM and inactive = higher.

Holding throughout (assay): inhibition of tumour cell growth, NCI panel, 48 h
Experiment [1] concerns 786-0.
In experiment [2] the test system is A549.
Experiment [3] concerns CCRF-CEM.
Experiment [4] deals with COLO 205.
Experiment [5] concerns EKVX.
Experiment [6] concerns HOP-62.
Experiment [7] has as its system IGROV-1.
Experiment [8] relates to K562.
Experiment [9] has as its system KM12.
The test system of experiment [10] is Malme-3M.
For experiment [11], the system named is NCI-H460.
Experiment [12] relates to NCI/ADR-RES.
Experiment [13] concerns OVCAR-4.
Experiment [14] relates to OVCAR-8.
For experiment [15], the system named is SF-295.
For experiment [16], the system named is SN12C.
In experiment [17] the test system is T47D.
Experiment [18] deals with UACC-62.
For experiment [19], the system named is UO-31.

For `CC(=O)O[C@H]1C(=O)[C@@]2(C)[C@H]([C@H](OC(=O)c3ccccc3)[C@]3(O)C[C@H](OC(=O)[C@H](O)[C@@H](NC(=O)C(C)(O)C(C)O)c4ccccc4)C(C)=C1C3(C)C)[C@]1(OC(C)=O)CO[C@@H]1C[C@@H]2O` (stereo not given in full), the GI50 in experiment [1] is 1.33 µM (inactive); in experiment [2] it was 0.573 µM (active); in experiment [3], 0.183 µM (active); in experiment [4], 0.0933 µM (active); in experiment [5], > 50 µM (inactive); in experiment [6] it was 0.282 µM (active). The GI50 in [7] is 0.205 µM (active); in [8] it was 0.172 µM (active); in experiment [9], 0.167 µM (active); in [10] it was 0.226 µM (active); in [11], 0.282 µM (active); in [12] it was > 50 µM (inactive). Further, the GI50 is 13.2 µM (inactive) in [13]; 1.42 µM (inactive) in [14]; 3.72 µM (inactive) in experiment [15]; 0.485 µM (active) in [16]; 0.929 µM (active) in [17]; 0.242 µM (active) in [18]. Moreover, the GI50 in experiment [19] was 27.6 µM (inactive).

In the case of `O=C(O)CSc1ccccc1C(=O)O`, the GI50 in experiment [1], in experiment [2], in [3], in experiment [4], in [5] and in experiment [6] was > 100 µM (inactive) each time. The GI50 is > 100 µM (inactive) in [7]; > 100 µM (inactive) in experiment [8]; > 100 µM (inactive) in [9]; > 100 µM (inactive) in experiment [10]; 20.7 µM (inactive) in experiment [11]; > 100 µM (inactive) in experiment [12]. Further, the GI50 in experiment [13], in experiment [14], in experiment [15], in experiment [16], in experiment [17] and in [18] was > 100 µM (inactive) each time. Further, the GI50 in experiment [19] is > 100 µM (inactive).

As for `NS(=O)(=O)c1ccc(/N=N/c2cnc(O)c(O)c2)cc1`, the GI50 is > 100 µM (inactive) in experiment [1]; > 100 µM (inactive) in experiment [2]; 19.6 µM (inactive) in experiment [3]; 95.3 µM (inactive) in experiment [4]; > 100 µM (inactive) in experiment [5]; > 100 µM (inactive) in experiment [6]. For the same compound, the GI50 was > 100 µM (inactive) in [7]; > 100 µM (inactive) in experiment [8]; 96.8 µM (inactive) in experiment [9]; 29.8 µM (inactive) in [10]; > 100 µM (inactive) in experiment [11]; 94.2 µM (inactive) in experiment [12]. Besides, the GI50 in experiment [13] was 50 µM (inactive); in experiment [14], 76.2 µM (inactive); in [15], > 100 µM (inactive); in [16] it was 51.9 µM (inactive); in experiment [17], 85.7 µM (inactive); in experiment [18], 43.1 µM (inactive). Moreover, the GI50 in experiment [19] is > 100 µM (inactive).

As for `Cc1ccc(S(=O)(=O)NCCCCC(N)C(=O)O)cc1` (stereo not given), the GI50 in experiment [1], in experiment [2], in [3], in experiment [4], in experiment [5] and in [6] was > 100 µM (inactive) throughout. Further, the GI50 in experiment [7], in experiment [8], in experiment [9], in experiment [10], in experiment [11] and in experiment [12] was > 100 µM (inactive) each time. The GI50 in experiment [13], in [14], in [15], in experiment [16], in [17] and in [18] was > 100 µM (inactive) throughout. Moreover, in experiment [19], the GI50 is > 100 µM (inactive).

`CCCCc1ccc(-n2sc3ncc(C)cc3c2=O)cc1`: the GI50 in experiment [1] was 34.9 µM (inactive); in [2], 20.6 µM (inactive); in [3], 8.18 µM (inactive); in [4], 20.5 µM (inactive); in experiment [5], 19.5 µM (inactive); in experiment [6] it was 30.3 µM (inactive). In addition, the GI50 in [7] is 21.7 µM (inactive); in experiment [8] it was 43.9 µM (inactive); in [9] it was 22.7 µM (inactive); in experiment [10] it was 25.8 µM (inactive); in experiment [11] it was 12.6 µM (inactive); in [12] it was 27.6 µM (inactive). Also, the GI50 in experiment [13] is 33.7 µM (inactive); in experiment [14] it was 21 µM (inactive); in [15], 45.2 µM (inactive); in experiment [16] it was 21.9 µM (inactive); in experiment [17], 22.6 µM (inactive); in experiment [18], 32.4 µM (inactive). Moreover, the GI50 in experiment [19] is 6.1 µM (inactive).

With `O=C(CNc1ccc(Cl)cc1)Nn1c(-c2ccccc2)nc2ccccc2c1=O`, the GI50 is 4.18 µM (inactive) in experiment [1]; 14.2 µM (inactive) in experiment [2]; 2.04 µM (inactive) in experiment [3]; 6.82 µM (inactive) in [4]; 18.1 µM (inactive) in [5]; 14.9 µM (inactive) in experiment [6]. Also, the GI50 is 3.84 µM (inactive) in experiment [7]; 3.35 µM (inactive) in experiment [8]; 10.8 µM (inactive) in experiment [9]; 6.55 µM (inactive) in experiment [10]; 8.79 µM (inactive) in experiment [11]; 6.79 µM (inactive) in [12]. Also, the GI50 in [13] is 7.5 µM (inactive); in experiment [14], 3.72 µM (inactive); in experiment [15] it was 15.1 µM (inactive); in [16], 7.43 µM (inactive); in experiment [17], 4.83 µM (inactive); in experiment [18], 3.89 µM (inactive). For the same compound, the GI50 in experiment [19] is 6.75 µM (inactive).

As for `NCC(=O)Nc1ccc(Cl)cc1C(=O)c1ccc[nH]1`, the GI50 in [1] was > 83.4 µM (inactive); in experiment [2], 63.1 µM (inactive); in experiment [3] it was 3.42 µM (inactive); in [4], > 86.1 µM (inactive); in [5] it was > 100 µM (inactive); in [6] it was > 94.2 µM (inactive). Further, the GI50 in experiment [7] was > 48.4 µM (inactive); in experiment [8], 10.5 µM (inactive); in experiment [9], 34 µM (inactive); in experiment [10], > 56.4 µM (inactive); in [11], 10.4 µM (inactive); in experiment [12], 49 µM (inactive). In addition, the GI50 in experiment [13] is 21.7 µM (inactive); in [14] it was > 56.8 µM (inactive); in experiment [15], > 100 µM (inactive); in experiment [16] it was > 36.3 µM (inactive); in experiment [17], 54.1 µM (inactive); in experiment [18] it was > 68.5 µM (inactive). Also, the GI50 in experiment [19] is 21.7 µM (inactive).

For `Cc1sc2[nH]c(=O)oc(=O)c2c1C`, the GI50 in experiment [1] was 70.3 µM (inactive); in experiment [2], > 83.8 µM (inactive); in experiment [3], 39.6 µM (inactive); in experiment [4], 59 µM (inactive); in experiment [5] it was > 100 µM (inactive); in experiment [6] it was 72.8 µM (inactive). Moreover, the GI50 in [7] is > 75.3 µM (inactive); in [8] it was > 96.4 µM (inactive); in [9] it was 34.9 µM (inactive); in experiment [10], > 72.1 µM (inactive); in [11], > 100 µM (inactive); in experiment [12], 35.1 µM (inactive). The GI50 is 67.6 µM (inactive) in [13]; 65.8 µM (inactive) in experiment [14]; > 77.8 µM (inactive) in experiment [15]; > 76.2 µM (inactive) in experiment [16]; > 86.5 µM (inactive) in [17]; 52.1 µM (inactive) in experiment [18]. For the same compound, the GI50 in experiment [19] was 33 µM (inactive).

For `COC(=O)C1CC2(CCC1=O)Cc1ccccc1C2=O` (stereo not given), the GI50 is > 100 µM (inactive) in experiment [1]; > 100 µM (inactive) in experiment [2]; 50.4 µM (inactive) in experiment [3]; > 100 µM (inactive) in [4]; 89.5 µM (inactive) in [5]; > 100 µM (inactive) in experiment [6]. For the same compound, the GI50 is > 100 µM (inactive) in [7]; 42.3 µM (inactive) in experiment [8]; > 100 µM (inactive) in experiment [9]; > 100 µM (inactive) in experiment [10]; > 100 µM (inactive) in [11]; 99.5 µM (inactive) in experiment [12]. Further, the GI50 was > 100 µM (inactive) in experiment [13]; > 100 µM (inactive) in experiment [14]; 82.2 µM (inactive) in [15]; > 100 µM (inactive) in experiment [16]; > 100 µM (inactive) in [17]; > 100 µM (inactive) in experiment [18]. Moreover, the GI50 in experiment [19] is > 100 µM (inactive).

Consider `CCNC1(c2cccc(C)c2)OC(C)(C)c2cccc3cccc1c23` (stereo not given), for which the GI50 is 18.8 µM (inactive) in experiment [1]; 15.6 µM (inactive) in experiment [2]; 2.5 µM (inactive) in experiment [3]; 16.1 µM (inactive) in [4]; 18.8 µM (inactive) in experiment [5]; 21 µM (inactive) in experiment [6]. In addition, the GI50 in [7] is 17.8 µM (inactive); in experiment [8] it was 11.7 µM (inactive); in experiment [9] it was 21.9 µM (inactive); in [10] it was 16.3 µM (inactive); in experiment [11] it was 15.2 µM (inactive); in [12], 19.8 µM (inactive). The GI50 was 16 µM (inactive) in [13]; 18.4 µM (inactive) in [14]; 17.9 µM (inactive) in [15]; 19 µM (inactive) in [16]; 26.9 µM (inactive) in experiment [17]; 15.6 µM (inactive) in experiment [18]. The GI50 in experiment [19] is 16.1 µM (inactive).
